# Results published in paper PMC9657303, “Phenylethanoid and Phenylmethanoid Glycosides from the Leaves of Ligustrum robustum and Their Bioactivities” (Molecules, 2022).
# Legend:
# [1] = ABTS radical scavenging assay; settings: mean ± SD (n = 3)
# Method: (§1) S1.4. DPPH radical scavenging assay […]
# S1.5. ABTS radical scavenging assay
# The ABTS radical scavenging assay was used also to evaluate the antioxidant activity of compounds 1-11. The ABTS free radical cation (ABTS•+ )was manufactured by reacting ABTS stock solution (7 mM) with potassium persulphate
# α-amylase = α-amylase inhibitory activity; assay type: biochemical; settings: for α-Amylase Inhibition at 0.1 mM: mean ± SD (n = 3), NA: no activity; for α-amylase inhibitory effects (in words): weaker than the positive control acarbose
# Method: S1.3. Determination of α-amylase inhibitory activity
# Phosphate buffer (20 mM, pH 6.9, containing 6 mM NaCl) was used as the […]
# µL, 1%, w/v) were mixed and incubated in a 96-well microplate at37 °C for 10 min.
# Then, α-amylase solution (50 µL, 0.2 U/mL) was added and the mixture was incubated at 37 °C for an additional 10 min. The reaction was stopped by addition of […]
# microplate was immediately heated in 95 °C water bath for 10 min. When the reaction solution cooled to room temperature, allsamples were diluted by adding distilled water (50 µL), and then their absorbance was measured using a microplate reader at […]
# starch solution) at 540 nm, thus the inhibitory activity was calculated as (Acontrol-Asample)/Acontrol×100%, in which Asample was the absorbance of the sample and Acontrol was the absorbance of the phosphate buffer control without test samples. Acarbose was used as the positive control.
# as §1
# [2] = DPPH radical scavenging assay; settings: mean ± SD (n = 3); NA: no activity
# Method: S1.4. DPPH radical scavenging assay
# The DPPH radical scavenging assay was used to evaluate the antioxidant activity of compounds 1-11. In a 96-well microplate, 100 µL of DPPH solution (200 µM in ethanol) was added to 100 µL sample in ethanol at graded concentrations ranging from 7 to 500 µM. The mixture was incubated in the dark at room temperature for 30 min. The absorbance of the reaction mixture was measured at 517 nm using a microplate reader. The DPPH scavenging activity was calculated by the following formula: DPPH scavenging activity (%) = (Acontrol- Asample)/Acontrol×100%, where Acontrol was the absorbance of ethanol control without samples, Asample was the absorbance of sample. Ascorbic acid was used as the positive control in the […]
# α-Glucosidase from yeast = assay: α-glucosidase inhibitory activity; assay type: biochemical; settings: for α-Glucosidase Inhibition at 0.1 mM: mean ± SD (n = 3), NA: no activity; for α-glucosidase inhibitory effects (in words): weaker than the positive control acarbose
# Method: S1. Determination of bioactivities […]
# S1.2. Determination of α-glucosidase inhibitory activity […]
# diluted with phosphate buffer (0.1 M, pH 6.8). […]
# and 4-nitrophenyl α-D-glucopyranoside (pNPG) solution (50 µL, 5 mM) were mixed and incubated in a 96-well microplate at 37 °C for 5 min. α-Glucosidase from yeast (50 µL, 0.2 U/mL) was added and incubated at 37 °C for another 30 min. Finally, 50 µL of Na2CO3 (1M) was added to terminate the reaction. The absorbance of mixture was measured using a microplate reader at a wavelength 405 nm. […]
# following equation: α-glucosidase inhibition (%) = (Acontrol- Asample)/Acontrol×100%, where Acontrolrepresented the absorbance of phosphate buffer control without test samples, Asample represented the absorbance of test samples. Acarbose was used as the […]
# FAS = target: T1, FAS (Gallus gallus, UniProt P12276); assay: FAS inhibitory activity; assay type: biochemical, chicken; settings: mean ± SD (n = 3); NA: no activity
# T1 construct: isolated from chicken liver; from tissue; host or cells: chicken liver
# T1 sequence (P12276 2-2512 limits assumed): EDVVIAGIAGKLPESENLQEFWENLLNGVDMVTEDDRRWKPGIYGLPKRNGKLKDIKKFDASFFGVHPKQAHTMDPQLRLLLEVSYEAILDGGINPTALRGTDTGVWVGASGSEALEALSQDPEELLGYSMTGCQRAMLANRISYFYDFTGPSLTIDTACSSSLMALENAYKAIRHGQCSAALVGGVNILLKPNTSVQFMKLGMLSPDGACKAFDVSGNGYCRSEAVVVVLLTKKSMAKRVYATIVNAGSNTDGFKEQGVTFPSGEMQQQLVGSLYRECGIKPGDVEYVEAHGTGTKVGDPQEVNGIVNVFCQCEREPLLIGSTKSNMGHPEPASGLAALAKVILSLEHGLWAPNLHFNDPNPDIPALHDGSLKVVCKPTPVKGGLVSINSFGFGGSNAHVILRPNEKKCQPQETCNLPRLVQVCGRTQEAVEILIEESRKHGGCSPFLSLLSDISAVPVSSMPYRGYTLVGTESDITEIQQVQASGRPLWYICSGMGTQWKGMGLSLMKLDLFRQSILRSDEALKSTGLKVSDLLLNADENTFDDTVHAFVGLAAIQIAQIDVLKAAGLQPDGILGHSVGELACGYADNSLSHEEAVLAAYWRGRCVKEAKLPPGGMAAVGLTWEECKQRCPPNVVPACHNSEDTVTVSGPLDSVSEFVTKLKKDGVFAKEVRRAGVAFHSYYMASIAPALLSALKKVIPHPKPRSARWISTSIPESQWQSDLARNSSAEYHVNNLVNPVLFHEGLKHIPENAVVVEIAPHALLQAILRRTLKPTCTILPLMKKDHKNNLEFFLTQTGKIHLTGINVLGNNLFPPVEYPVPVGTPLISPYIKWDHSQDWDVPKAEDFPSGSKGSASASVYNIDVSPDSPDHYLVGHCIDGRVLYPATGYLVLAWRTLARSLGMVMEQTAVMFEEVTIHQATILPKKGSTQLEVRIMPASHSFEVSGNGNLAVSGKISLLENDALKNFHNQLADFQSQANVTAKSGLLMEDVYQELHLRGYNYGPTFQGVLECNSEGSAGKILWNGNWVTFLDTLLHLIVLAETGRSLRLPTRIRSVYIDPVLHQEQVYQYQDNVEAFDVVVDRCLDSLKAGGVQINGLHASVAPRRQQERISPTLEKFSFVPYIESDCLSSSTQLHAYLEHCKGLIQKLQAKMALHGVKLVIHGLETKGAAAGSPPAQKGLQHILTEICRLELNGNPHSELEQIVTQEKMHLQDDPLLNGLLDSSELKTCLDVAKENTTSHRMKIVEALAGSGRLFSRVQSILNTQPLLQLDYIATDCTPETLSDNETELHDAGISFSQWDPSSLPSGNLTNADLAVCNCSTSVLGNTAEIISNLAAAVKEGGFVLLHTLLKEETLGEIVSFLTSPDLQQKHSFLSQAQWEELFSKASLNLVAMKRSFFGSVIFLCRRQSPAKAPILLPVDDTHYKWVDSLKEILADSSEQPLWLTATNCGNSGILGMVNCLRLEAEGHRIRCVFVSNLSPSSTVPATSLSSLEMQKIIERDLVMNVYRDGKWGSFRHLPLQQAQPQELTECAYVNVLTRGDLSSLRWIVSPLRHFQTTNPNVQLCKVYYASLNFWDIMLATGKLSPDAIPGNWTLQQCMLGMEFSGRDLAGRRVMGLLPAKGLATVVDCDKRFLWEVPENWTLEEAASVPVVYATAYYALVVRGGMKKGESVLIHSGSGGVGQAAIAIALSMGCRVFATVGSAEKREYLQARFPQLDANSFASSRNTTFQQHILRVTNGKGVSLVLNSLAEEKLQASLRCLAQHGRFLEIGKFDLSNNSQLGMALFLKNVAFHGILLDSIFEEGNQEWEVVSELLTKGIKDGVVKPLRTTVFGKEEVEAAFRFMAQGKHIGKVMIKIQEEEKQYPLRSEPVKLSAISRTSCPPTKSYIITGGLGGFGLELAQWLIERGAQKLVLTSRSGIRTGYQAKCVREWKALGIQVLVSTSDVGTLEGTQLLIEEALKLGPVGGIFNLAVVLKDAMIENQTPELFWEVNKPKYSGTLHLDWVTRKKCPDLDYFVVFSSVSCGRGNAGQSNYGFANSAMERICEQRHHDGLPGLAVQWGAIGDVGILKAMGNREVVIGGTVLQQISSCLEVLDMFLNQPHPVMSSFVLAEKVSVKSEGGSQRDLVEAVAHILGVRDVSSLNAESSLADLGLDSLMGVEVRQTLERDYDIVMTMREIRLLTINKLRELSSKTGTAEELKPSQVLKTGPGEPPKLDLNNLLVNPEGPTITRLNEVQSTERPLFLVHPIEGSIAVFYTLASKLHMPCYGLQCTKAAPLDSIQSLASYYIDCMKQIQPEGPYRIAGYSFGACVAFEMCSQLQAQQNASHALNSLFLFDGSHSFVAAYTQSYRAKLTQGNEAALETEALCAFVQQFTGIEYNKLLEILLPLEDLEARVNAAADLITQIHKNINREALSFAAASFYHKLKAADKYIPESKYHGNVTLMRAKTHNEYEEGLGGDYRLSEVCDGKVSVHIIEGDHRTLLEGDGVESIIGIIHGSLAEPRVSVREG
# Method: S1. Determination of bioactivities
# S1.1. Determination of FAS inhibitory activity […]
# diluted with potassium phosphate buffer (0.1 M, pH 7.0). Sample solution (100 µL, 20-2000 μM, 37 °C) and FAS substrates (1.8 mL, 37 °C) were mixed in a cuvette, and then FAS solution (100 µL, 37 °C, isolated from chicken liver and kept in ice-bath before use) was added. The absorbance of reaction mixture was monitored by a UV-vis spectrophotometer at340 nm in 1 min. The inhibitory effect was calculated by the following equation: FAS inhibition (%) = (Acontrol-Asample)/Acontrol× 100%, where Acontrolrepresented the FAS activity in the control group (phosphate buffer instead of sample solution), Asamplerepresented the FAS activity in the sample groups. The FAS activity was calculated as (A0 -A1)/1 min, in which A0 was the absorbance of the reaction mixture when the FAS was added, and A1 was the absorbance of the reaction mixture after reaction 1 min. Orlistat was used as the positive control.
# FAS substrates: 0.1 M potassium phosphate buffer (pH 7.0), 1 mM ethylene-diaminetetraacetic acid (EDTA), 1 mM dithiothreitol, 3 µM acetyl-coenzyme A, 10 µM […], 35 µM NADPH. […]
SMILES,IC50 [1],α-Amylase Inhibition at 0.1 mM (α-amylase),IC50 [2],α-Glucosidase Inhibition at 0.1 mM (α-Glucosidase from yeast),α-glucosidase inhibitory effects (in words) (α-Glucosidase from yeast),IC50 (FAS),α-amylase inhibitory effects (in words) (α-amylase)
CC1OC(OC2C(C)OC(OC3C(O)C(OCC(O)c4ccc(O)c(O)c4)OC(CO)C3OC(=O)C=Cc3ccc(O)cc3)C(O)C2O)C(O)C(O)C1O (stereo not drawn) [Compound 2],10.6 ± 0.48 µM,10.6 ± 2.3 f %,43.2 ± 1.06 µM,–,–,–,–
"C[C@@H]1O[C@@H](O[C@@H]2[C@@H](O)[C@@H](O)[C@H](O[C@@H]3[C@@H](O)[C@H](OCC(=O)c4ccc(O)c(O)c4)O[C@H](CO)[C@H]3OC(=O)/C=C/c3ccc(O)cc3)O[C@H]2C)[C@H](O)[C@H](O)[C@H]1O [Compound 3, 2-(3,4-dihydroxyphenyl)-2-oxoethyl 3-O-[α-L-rhamnopyranosyl-(1→4)-α-L-rhamnopyranosyl]-4-O-(trans-p-coumaroyl)-O-β-D-glucopyranoside]",4.13 ± 0.06 µM,–,23.8 ± 0.89 µM,42.3 ± 8.7 bc %,moderate,–,–
CC1OC(OC2C(O)C(OCc3ccccc3)OC(CO)C2OC(=O)C=Cc2ccc(O)cc2)C(O)C(O)C1O (stereo not drawn) [Compound 4],–,–,–,–,–,6.49 ± 0.27 µM,–
"C[C@@H]1O[C@@H](O[C@@H]2[C@@H](O)[C@H](OCc3ccccc3)O[C@H](COC(=O)/C=C/c3ccc(O)cc3)[C@H]2O)[C@H](O)[C@H](O)[C@H]1O [Compound 5, benzyl 3-O-(α-L-rhamnopyranosyl)-6-O-(trans-p-coumaroyl)-O-β-D-glucopyranoside]",4.86 ± 0.06 µM,–,> 250 µM,45.1 ± 2.5 b %,moderate,–,–
"C[C@@H]1O[C@@H](O[C@@H]2[C@@H](O)[C@H](OCc3ccccc3)O[C@H](COC(=O)/C=C\c3ccc(O)cc3)[C@H]2O)[C@H](O)[C@H](O)[C@H]1O [Compound 6, benzyl 3-O-(α-L-rhamnopyranosyl)-6-O-(cis-p-coumaroyl)-O-β-D-glucopyranoside]",20.7 ± 0.22 µM,–,–,36.5 ± 1.5 c %,–,–,–
"C[C@@H]1O[C@@H](O[C@@H]2[C@@H](O)[C@@H](O)[C@H](O[C@@H]3[C@@H](O)[C@H](OCCc4ccc(O)cc4)O[C@H](CO)[C@H]3OC(=O)/C=C/c3ccc(O)cc3)O[C@H]2C)[C@H](O)[C@H](O)[C@H]1O [Compound 7, ligupurpuroside B]",2.75 ± 0.09 µM,19.9 ± 1.8 d %,> 250 µM,–,–,–,–
"CC1OC(OC2C(C)OC(OC3C(O)C(OCCc4ccc(O)cc4)OC(CO)C3OC(=O)C=Cc3ccc(O)cc3)C(O)C2O)C(O)C(O)C1O (stereo not drawn) [Compound 8, cis-ligupurpuroside B]",4.17 ± 0.06 µM,–,> 250 µM,–,–,–,–
"C[C@@H]1O[C@@H](O[C@@H]2[C@@H](O)[C@@H](O)[C@H](O[C@@H]3[C@@H](O)[C@H](OCCc4ccc(O)cc4)O[C@H](CO)[C@H]3OC(=O)/C=C/c3ccc(O)c(O)c3)O[C@H]2C)[C@H](O)[C@H](O)[C@H]1O [Compound 9, ligurobustoside N]",2.68 ± 0.05 µM,15.9 ± 3.1 e %,29.2 ± 0.37 µM,25.4 ± 4.1 d %,–,5.61 ± 0.44 µM,–
"CC1OC(OC2C(O)C(OCCc3ccc(O)cc3)OC(CO)C2OC(=O)C=Cc2ccc(O)cc2)C(O)C(O)C1O (stereo not drawn) [Compound 10, osmanthuside D]",3.34 ± 0.02 µM,26.1 ± 1.9 c %,> 250 µM,19.3 ± 5.6 e %,–,–,moderate
"CC1OC(OC2C(O)C(COC(=O)C=Cc3ccc(O)cc3)OC(OCCc3ccc(O)cc3)C2O)C(O)C(O)C1O (stereo not drawn) [Compound 11, (Z)-osmanthuside B6]",3.83 ± 0.05 µM,23.5 ± 1.7 c %,> 250 µM,–,–,4.55 ± 0.35 µM,moderate
"O=C1O[C@H]([C@@H](O)CO)C(O)=C1O [L-(+)-ascorbic acid, reference compound]",10.1 ± 0.19 µM,–,13.66 ± 0.13 µM,–,–,–,–
